Structures can show the parent of a compound that is named as a salt.
Key:
[1] = Oral pharmacokinetics in rats: plasma concentration of active nnRTI after gavage of prodrug or parent (Example 8); format: in vivo; conditions: parent compound dosed p.o. at 50 mg/kg; for Cmax: rat, plasma, po, read-out: Cmax (peak concentration of active nnRTI) (converted)
Procedure: dose equivalent to (0.127 mmol) was administered orally by gavage. A blood sample (0.3 mL) was collected from the […] at 0.5, 1, 2, 3, 4, 6 and 8 hours after via the jugular cannula. A sample of at least 0.3 mL of blood was withdrawn from the untreated animals 3 h after dosing. After 24 h from dosing, as much blood as possible was collected from all treated and control animals. Potassium oxalate/NaF was added to the samples which were stored on ice during sampling procedure. The samples were spun in a refrigerated centrifuge at […] as soon as possible and the plasma samples were stored −20° C. immediately after centrifugation amd later transferred to a −80° C. freezer until analysis. The concentration of test compound was determined by hplc.

| SMILES | melting point | AUC (total amount of active nnRTI absorbed) [1] | Cmax [1] |
| --- | --- | --- | --- |
| Cc1cc(Cc2ccc(Cl)c(Oc3cc(C#N)cc(C#N)c3)c2F)nn(COC(=O)CCC(=O)O)c1=O [Compound I-8, Succinic acid mono-{3-[4-chloro-3-(3,5-dicyano-phenoxy)-2-fluoro-benzyl]-5-methyl-6-oxo-6H-pyridazin-1-ylmethyl}ester] | 167 to 171.5 °C | – | – |
| Cc1cc(Cc2ccc(Cl)c(Oc3cc(C#N)cc(C(F)F)c3)c2F)nn(COC(=O)CCC(=O)O)c1=O [Compound I-28, Succinic acid mono-{3-[4-chloro-3-(3-cyano-5-difluoromethyl-phenoxy)-2-fluoro-benzyl]-5-methyl-6-oxo-6H-pyridazin-1-ylmethyl}ester] | 154.3 to 156.9 °C | – | – |
| Cc1cc(Cc2ccc(Cl)c(Oc3cc(C#N)cc(C#N)c3)c2F)n[nH]c1=O [Compound 10, 5-[6-chloro-2-fluoro-3-(5-methyl-6-oxo-1,6-dihydro-pyridazin-3-ylmethyl)-phenoxy]-isophthalonitrile] | – | 8100 ng·h/mL | 600 ng/mL |
| Cc1cc(Cc2ccc(Cl)c(Oc3cc(C#N)cc(C(F)F)c3)c2F)nn(CO)c1=O [Compound I-27] | 113.9 to 117.3 °C | – | – |
| Cc1cc(Cc2ccc(Cl)c(Oc3cc(C#N)cc(C#N)c3)c2F)nn(COC(=O)OCCN(C)C)c1=O (as salt: HCl) [Compound I-18, Carbonic acid 3-[4-chloro-3-(3,5-dicyano-phenoxy)-2-fluoro-benzyl]-5-methyl-6-oxo-6H-pyridazin-1-ylmethyl ester 2-dimethylamino-ethyl ester] | 75 to 90 °C | – | – |
| N#Cc1cc(F)cc(Oc2c(Cl)ccc(Cc3ccc(=O)n(CO)n3)c2F)c1 [Compound I-29] | 100.5 to 103.8 °C | – | – |
| Cc1cc(Cc2ccc(Cl)c(Oc3cc(Cl)cc(C#N)c3)c2F)n[nH]c1=O [Compound 11, 3-chloro-5-[6-chloro-2-fluoro-3-(5-methyl-6-oxo-1,6-dihydro-pyridazin-3-ylmethyl)-phenoxy]-benzonitrile] | – | 30000 ng·h/mL | 2300 ng/mL |
| N#Cc1cc(F)cc(Oc2c(Cl)ccc(Cc3ccc(=O)n(COC(=O)CCC(=O)O)n3)c2F)c1 [Compound I-30, Succinic acid mono-{3-[4-chloro-3-(3-cyano-5-fluoro-phenoxy)-2-fluoro-benzyl]-6-oxo-6H-pyridazin-1-ylmethyl}ester] | 133.9 to 137 °C | – | – |
| Cc1cc(Cc2ccc(Cl)c(Oc3cc(C#N)cc(C#N)c3)c2F)nn(COP(=O)(O)O)c1=O (as salt: sodium) (hydrate or solvate) [Compound I-23, Phosphoric acid mono-{3-[4-chloro-3-(3,5-dicyano-phenoxy)-2-fluoro-benzyl]-5-methyl-6-oxo-6H-pyridazin-1-ylmethyl}ester disodium salt] | 193.7 to 197.2 °C | – | – |
| Cc1cc(Cc2ccc(Cl)c(Oc3cc(C#N)cc(C#N)c3)c2F)nn(COC(=O)[C@@H](N)C(C)C)c1=O (as salt: hydrochloride) [Compound I-5, (S)-1-{3-[4-Chloro-3-(3,5-dicyano-phenoxy)-2-fluoro-benzyl]-5-methyl-6-oxo-6H-pyridazin-1-ylmethoxycarbonyl}-2-methyl-propyl-ammonium; chloride] | 176.7 to 178.3 °C | – | – |
| Cc1cc(Cc2ccc(Cl)c(Oc3cc(C#N)cc(C#N)c3)c2F)nn(CO)c1=O [Compound I-1, 5-[6-Chloro-2-fluoro-3-(1-hydroxymethyl-5-methyl-6-oxo-1,6-dihydro-pyridazin-3-ylmethyl)-phenoxyl]-isophthalonitrile] | 172 to 179 °C | – | – |
